From the supplement of paper PMC13380429

Key:
Settings in all cases: 72 h
[1] = system: U2OS; assay: cell viability relative to DMSO; higher = less toxic
[2] = system: Calu-3; assay: as above
[3] = system: Caco-2; assay: as above
[4] = system: Vero E6; assay: as above
[5] = system: HepG2; assay: as above
[6] = system: U2OS; assay: drug sensitivity score (DSS) for viability; higher = more toxic; extreme values may be limits of the assay
[7] = system: Calu-3; assay: as above
[8] = system: Caco-2; assay: as above
[9] = system: Vero E6; assay: as above
[10] = system: HepG2; assay: as above
[11] = system: U2OS; assay: relative viability EC50 (midpoint between 100% and the lowest measured viability); higher = less toxic
[12] = system: Calu-3; assay: as above
[13] = system: Caco-2; assay: as above
[14] = system: Vero E6; assay: as above
[15] = system: HepG2; assay: as above

Row | SMILES | cell viability ([1]; 1 nM) [%] | cell viability ([1]; 10 nM) [%] | cell viability ([1]; 100 nM) [%] | cell viability ([1]; 1000 nM) [%] | cell viability ([1]; 10000 nM) [%] | cell viability ([2]; 1 nM) [%] | cell viability ([2]; 10 nM) [%] | cell viability ([2]; 100 nM) [%] | cell viability ([2]; 1000 nM) [%] | cell viability ([2]; 10000 nM) [%] | cell viability ([3]; 1 nM) [%] | cell viability ([3]; 10 nM) [%] | cell viability ([3]; 100 nM) [%] | cell viability ([3]; 1000 nM) [%] | cell viability ([3]; 10000 nM) [%] | cell viability ([4]; 1 nM) [%] | cell viability ([4]; 10 nM) [%] | cell viability ([4]; 100 nM) [%] | cell viability ([4]; 1000 nM) [%] | cell viability ([4]; 10000 nM) [%] | cell viability ([5]; 1 nM) [%] | cell viability ([5]; 10 nM) [%] | cell viability ([5]; 100 nM) [%] | cell viability ([5]; 1000 nM) [%] | cell viability ([5]; 10000 nM) [%] | drug sensitivity score [6] | drug sensitivity score [7] | drug sensitivity score [8] | drug sensitivity score [9] | drug sensitivity score [10] | relative viability EC50 [11] [µM] | relative viability EC50 [12] [µM] | relative viability EC50 [13] [µM] | relative viability EC50 [14] [µM] | relative viability EC50 [15] [µM]
1 | NC(N)=Nc1nc(CSCC/C(N)=N/S(N)(=O)=O)cs1 [Famotidine] | 98 | 104 | 98.6 | 108 | 97.5 | 84 | 106 | 89.8 | 106 | 90.1 | 101 | 101 | 93.9 | 96.8 | 96.8 | 106 | 105 | 95.2 | 102 | 96.7 | 101 | 97.4 | 87.9 | 100 | 85.4 | 0 | 0 | 0 | 0 | 0 | > 10 | > 10 | > 10 | > 10 | > 10
2 | O=C(O)Cc1cccc(OCCCN(Cc2cccc(C(F)(F)F)c2Cl)CC(c2ccccc2)c2ccccc2)c1 [GW-3965] | 100 | 99.2 | 98.2 | 101 | 95.6 | 93.6 | 101 | 108 | 114 | 98.8 | 92.8 | 107 | 97.8 | 98.1 | 77.7 | 112 | 98.8 | 100 | 101 | 104 | 90.9 | 99.3 | 116 | 97.5 | 92.5 | 0 | 0 | 1 | 0 | 0 | > 10 | > 10 | > 10 | > 10 | > 10
3 | Cc1cc(C(=O)CN2CCCC2)c(C)n1-c1ccc(F)cc1 [IU1] | 92.3 | 98.8 | 95.5 | 96.2 | 109 | 112 | 99.9 | 102 | 109 | 104 | 103 | 105 | 101 | 108 | 99.1 | 99.2 | 97.8 | 98.4 | 94.6 | 105 | 95.7 | 100 | 101 | 102 | 103 | 0 | 0 | 0 | 0 | 0 | > 10 | > 10 | > 10 | > 10 | > 10
4 | C=C1C[C@]23C[C@@]1(O)CC[C@H]2[C@@]12C=C[C@H](O)[C@@](C)(C(=O)O1)[C@H]2[C@@H]3C(=O)O [MD-920] | 95.1 | 96.1 | 104 | 101 | 97 | 96.1 | 106 | 108 | 105 | 91.1 | 99.9 | 85.4 | 104 | 95.1 | 90.3 | 100 | 94.6 | 86.7 | 102 | 116 | 95.5 | 107 | 94.2 | 99 | 104 | 0 | 0 | 0 | 0 | 0 | > 10 | > 10 | > 10 | > 10 | > 10
5 | CCN1C[C@H](C)n2c(c(O)c3c(=O)n(Cc4ccc(F)c(Cl)c4)nc(C(=O)NC)c32)C1=O [MK-2048] | 101 | 96.3 | 102 | 98.5 | 97.8 | 91.3 | 90.2 | 92.3 | 98.2 | 93.7 | 97.2 | 96 | 93.2 | 94.7 | 87.4 | 101 | 100 | 105 | 101 | 98 | 110 | 106 | 93.9 | 100 | 98.4 | 0 | 0 | 0 | 0 | 0 | > 10 | > 10 | > 10 | > 10 | > 10
6 | O[C@@](Cc1nc(CC2(C(F)(F)F)CC2)c[nH]1)(c1ccc(-n2cccn2)cc1)C(F)(F)F [MK-5046] | 96 | 96.9 | 92.8 | 96.3 | 90.8 | 107 | 95.3 | 105 | 110 | 87.5 | 102 | 115 | 98.8 | 97 | 88.4 | 97.8 | 96.7 | 98.5 | 100 | 98.2 | 99.5 | 101 | 104 | 94.7 | 96.6 | 0 | 0 | 0.1 | 0 | 0 | > 10 | > 10 | > 10 | > 10 | > 10
7 | Clc1cccc(Nc2nnc(-c3ccccc3)c3ccccc23)c1 [MY-5445] | 95 | 98.2 | 95.6 | 99.8 | 101 | 95.2 | 97.7 | 88.2 | 104 | 104 | 93 | 104 | 94.7 | 104 | 97.9 | 96.6 | 96.7 | 95.8 | 92.1 | 106 | 104 | 98.4 | 107 | 104 | 103 | 0 | 0 | 0 | 0 | 0 | > 10 | > 10 | > 10 | > 10 | > 10
